Assay results as given in ChEMBL document CHEMBL1147284, “Alkaloids from the Leaves of Prosopis juliflora” (J Nat Prod, 1989).
Active and inactive are the calls of the source.

Tests used:
Format in all cases: functional, organism-based
Escherichia coli [1] = assay: Antibacterial activity against Escherichia coli 11303 HER 1024 after 24 hrs
Shigella sonnei = assay: Antibacterial activity against Shigella sonnei YER HER 1048 after 24 hrs
Pseudomonas aeruginosa = assay: Antibacterial activity against Pseudomonas aeruginosa PAO1 HER 1018 after 24 hrs
Klebsiella pneumoniae = assay: Antibacterial activity against Klebsiella pneumoniae C3 HER 1111 after 24 hrs
Staphylococcus aureus = assay: Antibacterial activity against Staphylococcus aureus B827 after 24 hrs
Escherichia coli [2] = assay: Antibacterial activity against Escherichia coli K125 HER 1037 after 24 hrs

Measured: Activity

C[C@@H]1N[C@H](CCCCCCCCCCc2cc(CCCCCCCCC[C@@H]3CC[C@H](O)[C@H](C)N3)c[n+]3c2C=CC3)CC[C@@H]1O
active: Escherichia coli [1] | Shigella sonnei | Pseudomonas aeruginosa | Klebsiella pneumoniae | Staphylococcus aureus | Escherichia coli [2]
